Target: T1, factor B (Homo sapiens, UniProt P00751)
Assay: assay of Biological Example 2.7
Assay type: binding
Parameters: made in house; host or cells: drosophila cells
Details: assay of Biological Example 2.7 (Table 2)
Target sequence in this assay (P00751 26-764): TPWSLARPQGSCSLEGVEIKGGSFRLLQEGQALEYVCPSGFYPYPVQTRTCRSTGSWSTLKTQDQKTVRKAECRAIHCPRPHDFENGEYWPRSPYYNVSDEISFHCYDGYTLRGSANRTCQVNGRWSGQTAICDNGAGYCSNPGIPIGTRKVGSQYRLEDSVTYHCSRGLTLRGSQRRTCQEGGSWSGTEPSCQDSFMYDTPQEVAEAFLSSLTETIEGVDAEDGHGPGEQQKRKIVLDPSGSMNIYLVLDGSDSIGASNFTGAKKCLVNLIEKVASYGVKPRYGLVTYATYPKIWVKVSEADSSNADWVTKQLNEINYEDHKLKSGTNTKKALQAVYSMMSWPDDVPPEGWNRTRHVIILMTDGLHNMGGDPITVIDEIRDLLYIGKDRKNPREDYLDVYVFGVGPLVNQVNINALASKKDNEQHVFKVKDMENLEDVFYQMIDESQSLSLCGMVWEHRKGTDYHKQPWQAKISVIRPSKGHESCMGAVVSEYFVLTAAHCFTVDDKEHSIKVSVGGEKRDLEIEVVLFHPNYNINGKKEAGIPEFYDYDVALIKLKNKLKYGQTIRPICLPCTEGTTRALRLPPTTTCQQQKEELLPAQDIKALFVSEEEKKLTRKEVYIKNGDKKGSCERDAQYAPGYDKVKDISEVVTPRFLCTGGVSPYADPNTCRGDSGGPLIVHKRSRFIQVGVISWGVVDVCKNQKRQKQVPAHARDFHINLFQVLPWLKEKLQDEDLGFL

Structure (SMILES)	IC50 [nM]
COc1cc(C)c2[nH]ccc2c1C(N)(c1nc2cc(C#N)ccc2[nH]1)C(F)(F)F (racemic) [36-E b) (−), (−)-2-(1-amino-2,2,2-trifluoro-1-(5-methoxy-7-methyl-1H-indol-4-yl)ethyl)-1H-benzo[d]imidazole-5-carbonitrile]	30
COc1cc(C)c2[nH]ccc2c1C(C)(OC)c1nc2cc(C#N)ccc2[nH]1 (single isomer, unassigned; (-)) [27-B b) (−), (−)-2-(1-methoxy-1-(5-methoxy-7-methyl-1H-indol-4-yl)ethyl)-1H-benzo[d]imidazole-5-carbonitrile]	4
COc1cc(C)c2[nH]ccc2c1C(C)(N)c1nc2cc(C#N)ccc2[nH]1 (single isomer, unassigned; (-)) [41-B b) (−), (−)-2-(1-amino-1-(5-methoxy-7-methyl-1H-indol-4-yl)ethyl)-1H-benzo[d]imidazole-5-carbonitrile]	10
COc1cc(C)c2[nH]ccc2c1C(c1nc2cc(C#N)ccc2o1)C(C)(C)C(=O)O (racemic) [Example 158, (±)-3-(5-Cyanobenzo[d]oxazol-2-yl)-3-(5-methoxy-7-methyl-1H-indol-4-yl)-2,2-dimethylpropanoic acid]	21000
COc1cc(C)c2[nH]ccc2c1C(c1nc2cc(C#N)ccc2[nH]1)C(C)C(=O)O (single isomer, unassigned; diastereomer b) [Example 147-E, (±)-3-(5-Cyano-1H-benzo[d]imidazol-2-yl)-3-(5-methoxy-7-methyl-1H-indol-4-yl)-2-methylpropanoic acid (Diastereomer B)]	160
COc1cc(C)c2[nH]ccc2c1C(C)(O)c1nc2cc(C#N)ccc2o1 (single isomer, unassigned; (+)) [137-N b) (+), (+)-2-(1-hydroxy-1-(5-methoxy-7-methyl-1H-indol-4-yl)ethyl)benzo[d]oxazole-5-carbonitrile]	40
COc1cc(C)c2[nH]ccc2c1C(C)(OC)c1nc2cc(C#N)ccc2o1 (single isomer, unassigned; (+)) [137-K b) (+), (+)-2-(1-methoxy-1-(5-methoxy-7-methyl-1H-indol-4-yl)ethyl)benzo[d]oxazole-5-carbonitrile]	820
COc1cc(C)c2[nH]ccc2c1C(CC(=O)O)c1nc2cc(C#N)ccc2o1 (single isomer, unassigned; (+)) [Example 148-D, (+)-3-(5-cyanobenzo[d]oxazol-2-yl)-3-(5-methoxy-7-methyl-1H-indol-4-yl)propanoic acid]	340
Cc1cc(C)c2[nH]ccc2c1C(O)c1cc2cc(C#N)ccc2o1 (stereo not drawn) [Example 137-Q]	1350
COc1cc(C)c2[nH]ccc2c1C(N)(c1nc2cc(C#N)ccc2o1)C(F)(F)F (single isomer, unassigned) [137-B b) (tr = 4.6 min), (−) or (+)-2-(1-amino-2,2,2-trifluoro-1-(5-methoxy-7-methyl-1H-indol-4-yl)ethyl)benzo[d]oxazole-5-carbonitrile]	3210
COc1cc(C)c2[nH]ccc2c1C(CCCC(=O)O)c1nc2cc(C#N)ccc2[nH]1 (racemic) [Example 157, (±)-5-(5-Cyano-1H-benzo[d]imidazol-2-yl)-5-(5-methoxy-7-methyl-1H-indol-4-yl)pentanoic acid]	39
COc1cc(C)c2[nH]ccc2c1C(CCC(=O)O)c1nc2cc(C#N)ccc2o1 (single isomer, unassigned; (-)) [Example 149-D, (−)-4-(5-cyanobenzo[d]oxazol-2-yl)-4-(5-methoxy-7-methyl-1H-indol-4-yl)butanoic acid]	120
Cc1cc(C)c2[nH]ccc2c1C(O)c1cc2cc(C#N)ccc2[nH]1 (stereo not drawn) [Example 137-P]	980
CCOC(=O)C(C)(c1nc2cc(C#N)ccc2o1)c1c(OC)cc(C)c2[nH]ccc12 (racemic) [Example 144-D, (±)-Ethyl 2-(5-cyanobenzo[d]oxazol-2-yl)-2-(5-methoxy-7-methyl-1H-indol-4-yl)propanoate]	7950
COc1cc(C)c2[nH]ccc2c1C(C)(OC)c1cc2ccc(C#N)cc2o1 (stereo not drawn) [Example 137-Y]	820
COc1cc(C)c2[nH]cc3c2c1C(c1nc2cc(C#N)ccc2[nH]1)(C(F)(F)F)NC3 (single isomer, unassigned; (+)) [Example 36-F, (+)-2-(6-methoxy-8-methyl-5-(trifluoromethyl)-1,3,4,5-tetrahydropyrrolo[4,3,2-de]isoquinolin-5-yl)-1H-benzo[d]imidazole-5-carbonitrile]	12
Cc1cc(O)c(C(N)(c2nc3cc(C#N)ccc3[nH]2)C(F)(F)F)c2cc[nH]c12 (single isomer, unassigned) [Example 141, (+) or (−)-2-(1-amino-2,2,2-trifluoro-1-(5-hydroxy-7-methyl-1H-indol-4-yl)ethyl)-1H-benzo[d]imidazole-5-carbonitrile]	150
Cc1cc(Br)c(C(C)(N)c2nc3cc(C#N)ccc3[nH]2)c2cc[nH]c12 (single isomer, unassigned; (-)) [137-A b) (−), (−)-2-(1-amino-1-(5-bromo-7-methyl-1H-indol-4-yl)ethyl)-1H-benzo[d]imidazole-5-carbonitrile]	20
[2H]C([2H])([2H])OC(C)(c1nc2cc(C#N)ccc2[nH]1)c1c(OC)cc(C)c2[nH]ccc12 (single isomer, unassigned; (-)) [137-I b) (−), (−)-2-(1-(^2H3)methoxy-1-(5-methoxy-7-methyl-1H-indol-4-yl)ethyl)-1H-benzo[d]imidazole-5-carbonitrile]	10
COc1cc(C)c2[nH]ccc2c1C(C)(O)c1cc2cc(C#N)ccc2[nH]1 (stereo not drawn) [Example 137-U]	35
COc1cc(C)c2[nH]ccc2c1C(O)c1nc2cc(C#N)ccc2s1 (stereo not drawn) [Example 137-C]	62

Target: T1, factor B
Assay: factor B inhibition assay of Biological Example 1
Assay type: biochemical
Parameters: CVF-Bb complex prepared from purified cobra venom factor (1 μM), recombinant human complement factor B; made in house; host or cells: drosophila cells (factor B); E. coli (factor D used to form the complex)
Details: IC50 (nM), assay of Biological Example 1 (Table 1)
Target sequence in this assay (P00751 260-764 limits assumed): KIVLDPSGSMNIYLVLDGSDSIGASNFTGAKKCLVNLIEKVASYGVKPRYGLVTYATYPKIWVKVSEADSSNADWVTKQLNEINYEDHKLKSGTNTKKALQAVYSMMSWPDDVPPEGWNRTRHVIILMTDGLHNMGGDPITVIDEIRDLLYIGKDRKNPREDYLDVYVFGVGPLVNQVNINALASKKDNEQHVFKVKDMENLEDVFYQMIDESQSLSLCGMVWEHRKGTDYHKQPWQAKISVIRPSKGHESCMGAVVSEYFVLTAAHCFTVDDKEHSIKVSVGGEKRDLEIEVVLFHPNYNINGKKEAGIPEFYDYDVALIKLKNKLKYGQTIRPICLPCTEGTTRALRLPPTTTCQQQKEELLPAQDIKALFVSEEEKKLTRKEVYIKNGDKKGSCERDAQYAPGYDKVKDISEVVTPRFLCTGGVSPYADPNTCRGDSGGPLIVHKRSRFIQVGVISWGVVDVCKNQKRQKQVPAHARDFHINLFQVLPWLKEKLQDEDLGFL
Target sequence in this assay (Q91132 23-649 partner limits assumed): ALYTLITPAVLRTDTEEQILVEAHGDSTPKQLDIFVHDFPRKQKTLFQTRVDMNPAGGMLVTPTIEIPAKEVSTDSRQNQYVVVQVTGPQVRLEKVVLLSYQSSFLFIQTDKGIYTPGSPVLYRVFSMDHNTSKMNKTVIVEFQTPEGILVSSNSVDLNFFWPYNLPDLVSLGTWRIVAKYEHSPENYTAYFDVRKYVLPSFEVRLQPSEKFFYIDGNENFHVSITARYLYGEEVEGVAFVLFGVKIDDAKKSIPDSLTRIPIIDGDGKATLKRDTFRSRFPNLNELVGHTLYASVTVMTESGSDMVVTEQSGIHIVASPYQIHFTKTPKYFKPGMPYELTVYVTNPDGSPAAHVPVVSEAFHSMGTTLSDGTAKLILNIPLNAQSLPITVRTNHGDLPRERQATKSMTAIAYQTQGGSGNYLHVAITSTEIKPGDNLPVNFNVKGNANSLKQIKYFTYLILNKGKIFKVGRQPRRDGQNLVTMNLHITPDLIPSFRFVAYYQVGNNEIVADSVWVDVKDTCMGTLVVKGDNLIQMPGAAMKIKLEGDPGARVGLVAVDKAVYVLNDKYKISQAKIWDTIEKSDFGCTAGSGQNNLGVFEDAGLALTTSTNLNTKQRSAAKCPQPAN
Target sequence in this assay (Q91132 733-984 partner limits assumed): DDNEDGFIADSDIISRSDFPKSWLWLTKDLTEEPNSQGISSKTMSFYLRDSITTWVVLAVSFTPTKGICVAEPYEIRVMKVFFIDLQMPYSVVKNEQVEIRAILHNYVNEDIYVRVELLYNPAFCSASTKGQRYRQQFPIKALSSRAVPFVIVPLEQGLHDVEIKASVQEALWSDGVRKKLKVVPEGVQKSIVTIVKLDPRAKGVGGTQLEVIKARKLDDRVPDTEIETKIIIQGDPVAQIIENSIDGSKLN
Target sequence in this assay (Q91132 1264-1642 partner limits assumed): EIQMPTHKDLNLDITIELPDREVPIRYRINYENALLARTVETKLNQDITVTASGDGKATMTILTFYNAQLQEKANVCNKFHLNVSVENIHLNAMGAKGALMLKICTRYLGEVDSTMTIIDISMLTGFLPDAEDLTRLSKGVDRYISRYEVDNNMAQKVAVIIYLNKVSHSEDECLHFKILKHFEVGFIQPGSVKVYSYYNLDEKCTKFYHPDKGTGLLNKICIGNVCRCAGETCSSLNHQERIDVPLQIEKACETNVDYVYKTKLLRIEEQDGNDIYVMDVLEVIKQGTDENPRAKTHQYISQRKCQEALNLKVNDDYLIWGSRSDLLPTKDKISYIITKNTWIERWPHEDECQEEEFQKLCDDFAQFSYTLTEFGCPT

Structure (SMILES)	IC50 [nM]
COc1cc(C)c2[nH]ccc2c1C(N)(c1nc2cc(C#N)ccc2[nH]1)C(F)(F)F (racemic) [36-E b) (−), (−)-2-(1-amino-2,2,2-trifluoro-1-(5-methoxy-7-methyl-1H-indol-4-yl)ethyl)-1H-benzo[d]imidazole-5-carbonitrile]	40
COc1cc(C)c2[nH]ccc2c1C(C)(OC)c1nc2cc(C#N)ccc2[nH]1 (single isomer, unassigned; (-)) [27-B b) (−), (−)-2-(1-methoxy-1-(5-methoxy-7-methyl-1H-indol-4-yl)ethyl)-1H-benzo[d]imidazole-5-carbonitrile]	3
COc1cc(C)c2[nH]ccc2c1C(C)(N)c1nc2cc(C#N)ccc2[nH]1 (single isomer, unassigned; (-)) [41-B b) (−), (−)-2-(1-amino-1-(5-methoxy-7-methyl-1H-indol-4-yl)ethyl)-1H-benzo[d]imidazole-5-carbonitrile]	9

From patent US9056874B2, “Complement pathway modulators and uses thereof” (NOVARTIS AG, priority 2012, dated 2015)
